Results from a melting point compilation (Tetko et al.; mined from patent text by program, amines drawn as free bases though some values may be those of a salt).

Row | SMILES | melting point [°C]
1 | O=C(CN1C(=O)c2ccccc2C1=O)Nc1cccc(OC(F)(F)F)c1 | 170
2 | CCCCc1c(/C=C/C(=O)Oc2ccc([N+](=O)[O-])cc2)cc(OC)c2ccc(OC)cc12 | 144 to 146
3 | O=C(NC1CN2CCC1CC2)c1cccc2oc(-c3ccccc3)nc12 (centres undefined) | 77 to 80
4 | CSC(=S)C1(c2ccc3ccccc3n2)CCCS1 (centres undefined) | 72
5 | COc1cc(C)cc(OC)c1C1=NC(NC(=O)C(N)Cc2ccccc2)C(=O)N(C)c2ccccc21 (centres undefined) | 165
6 | CC(CN1C(=O)C2(COc3cc4c(cc32)CCO4)c2ccccc21)OCOCc1ccccc1 (centres undefined) | 49 to 52
7 | CCCC1CCC=CCCCC(=O)OCCN1C(=O)OCC1c2ccccc2-c2ccccc21 (centres undefined) | 148 to 150
8 | O=C(O)c1ccc(Cn2ncc3ccccc32)cc1 | 178 to 179
9 | COc1cc([N+](=O)[O-])c(CO)c(OC)c1OC | 69 to 70
10 | COc1cc(Cl)c(Nc2nc(C)ccc2S(=O)(=O)c2ccc(OCc3ccccc3OC)cc2)cc1F | 62 to 64
11 | CS(=O)(=O)c1ccc(-c2oc3ccccc3c(=O)c2-c2cnccc2Cl)cc1 | 232 to 233
12 | O=C(Nc1ccccc1)N1Cc2sccc2C(O)C1 (centres undefined) | 200
13 | Nc1ccc(C(Cc2ccccc2)C(=O)O)cc1 (centres undefined) | 196 to 198
14 | Cc1nc2cccc(S(=O)(=O)n3c(CCC(=O)O)cc4cc(Cl)ccc43)c2s1 | 188 to 189
15 | Cc1ccccc1-c1nc(-c2cccc(Cl)c2)n[nH]1 | 147 to 148
16 | COc1cc(CCC(=O)c2c(OC)cc(OC)c(CCC(C)C)c2OCC(=O)O)ccc1O | 87 to 88
17 | O=C(CCCCCCSc1ccccc1)c1ncco1 | 39 to 40
18 | CCOc1ccc(Cc2cn(C3OC(COC(C)=O)C(OC(C)=O)C(OC(C)=O)C3OC(C)=O)c3cccc(F)c23)cc1 (centres undefined) | 146 to 148
19 | Cc1nn(C)c2cc(-c3ccc4nnn(Cc5ccc6ncccc6c5)c4n3)ccc12 | 159 to 163
20 | Cc1cccc(NC(=O)NC2N=C(c3ccccc3F)c3ccccc3N(Cc3ccccn3)C2=O)c1 (racemic) | 215 to 216
21 | CCNc1nc(-c2ccccc2)c(-c2ccccc2)nc1Cl | 115 to 122
22 | CCOC(=O)c1c(Cn2cncn2)nc2sc3c(c2c1-c1cccc(OC)c1OC)CCCN3C(=O)OCc1ccccc1 | 184 to 185
23 | COc1ccc(-c2nc(C)c(C)nc2-c2ccc(OC)cc2)cc1 | 106 to 108
24 | O=C(O)CCNC(=O)C(CS)Cc1ccccc1 (centres undefined) | 76 to 82
25 | O=C(Nc1ccccc1)N1C(=O)C2(CCCCC2)NC12CCCCC2 | 129 to 130

Row | SMILES | melting point [°C]
26 | CCC1(CCOC2CCCCO2)C(=O)N2CC=CC(C(=O)OC)N2C1=O (centres undefined) | 96 to 97
27 | CCCCC(=O)NNC(=O)c1ccc([N+](=O)[O-])cc1 | 185 to 187
28 | CCOCN(C(=O)CCl)c1c(C)cccc1[N+](=O)[O-] | 96 to 98
29 | CC(=O)NC1CCN(CCCCl)CC1 | 74 to 77
30 | COc1ccccc1Cn1c(=O)c2c(N3CCN(C)CC3)cc(Cl)cc2n(Cc2ccccc2)c1=O | 91 to 96
31 | O=C(O)COc1cccc(CCCOC(c2ccccc2)c2ccccc2)c1 | 110 to 112
32 | CS(=O)(=O)c1c(C(=O)NN=Cc2nccs2)[nH]c2ccccc12 | > 280
33 | CC1(C)CC(Nc2nc(NC3CC(C)(C)NC(C)(C)C3)nc(N(C3CC(C)(C)NC(C)(C)C3)C3CC(C)(C)NC(C)(C)C3)n2)CC(C)(C)N1 | 235 to 243
34 | COC(=O)c1cccc(C)c1S(=O)(=O)Cl | 114 to 116
35 | Nc1ncccc1Sc1ccccc1 | 108 to 109
36 | CN(C)N1CSC(=CCc2cc(C(C)(C)C)c(O)c(C(C)(C)C)c2)C1=O | 181 to 186
37 | Cn1cc(C2=CCC3(CC2)OCCO3)c2cc(C#N)ccc21 | 65 to 67
38 | CCn1c2ccccc2c2c3c(c(-c4ccccc4Cl)cc21)C(O)NC3=O (centres undefined) | 232 to 236
39 | CCCCCCCCCCCCCCCCCNC(=O)OCCOCCOC(=O)N(Cc1ccccn1)C(C)=O | 60 to 61
40 | COC(=O)c1ccc2c(c1)CCC(C(N)=O)C2 (centres undefined) | 162 to 164
41 | O=C1Nc2cccc(I)c2/C1=C/c1ccc[nH]1 | 256 to 258
42 | O=C(OCc1ccnc2ccccc12)ON1C(=O)CCC1=O | 94
43 | Cc1nc(N2CCN(CCc3c[nH]c4ccccc34)C2=O)sc1C(=O)NCc1cccnc1 | 198 to 201
44 | COc1cc2ncnc(N3CCCN(C(=O)Nc4ccc([N+](=O)[O-])cc4)CC3)c2cc1OC | 243 to 244
45 | COc1ccc(C2=NN(Cc3ccncc3)C(=O)[C@H]3CC=CC[C@@H]23)cc1OC (relative stereo) | 121 to 124
46 | CCOC(=O)NC1(c2cccs2)CCC2(CC1)OCCO2 | 113 to 117
47 | Cc1ccc(SN(CC(=O)OCc2ccccc2)CP(=O)(Oc2ccccc2)Oc2ccccc2)cc1 | 108 to 111
48 | CCN(CC)CCc1ccc2[nH]c(C)c(C(=O)O[C@@H](C)c3ccccc3)c2c1 | 95 to 97
49 | O=C(Nc1ccc2cc(CN3CCCCCC3)cnc2c1)c1ccc(-c2ccc(F)cc2)cc1 | 202
